In EP0472181B1, “5-Amine substituted adenosine analogs as immunosuppressants” (MERRELL PHARMACEUTICALS INC., priority 1990, dated 1992):

What was measured:
[1] = system: Cloned IL-2 dependent cytolytic T lymphocytes (CTLL-20); assay: Inhibition of interleukin-2 dependent T-cell growth in vitro: cell counts by trypan blue exclusion; format: cell-based; details: 10 Units/mL IL-2
Method: (§1) Inhibition of interleukin-2 (IL-2) dependent T-cell growth in vitro was determined essentially as described by Bowlin et al. [Cell Immunol. 98, 341-50 (1986)]. Cloned IL-2 dependent cytolytic T lymphocytes (CTLL-20), incubated alone or in the presence of (cis)-5'-deoxy-5'-[(4-amino-2-butenyl) methylamino]adenosine (Compound A) at varying concentrations, were stimulated with 10 Units/mL of IL-2 and were grown in culture. After 72 hours, cell counts were determined based on trypan blue exclusion.
as §1, with “in Example X.” for “by Bowlin et al. [Cell Immunol. 98, 341-50 (1986)].”, “100µM,” for “varying concentrations,”, “culture for 1, 2, 3 or 4 days. At the end of incubation,” for “culture. After 72 hours,”

[2] = system: Cloned IL-2 dependent cytolytic T lymphocytes (CTLL-20); assay: Inhibition of interleukin-2 dependent T-cell growth in vitro: DNA synthesis activity by [^3H]-TdR pulse after IL-2 restimulation; format: cell-based; details: [^3H]-TdR final 6 hours
Method: The CTLL-20 cells were restimulated with IL-2 (10 units/mL) for 24 hours and were pulsed for the final 6 hours with [^3H]-TdR to measure DNA synthesis activity essentially as described by Bowlin et al. [Cell Immunol. 98, 341-50 (1986)].
The CTLL-20 cells were then restimulated with IL-2 (10 units/mL) for 24 hours and were pulsed for the final 6 hours with [^3H]-TdR to measure DNA synthesis activity essentially as described for Example X.

## CN(C/C=C\CN)C[C@H]1O[C@@H](n2cnc3c(N)ncnc32)[C@H](O)[C@@H]1O (relative stereo) [Compound A, (cis)-5'-deoxy-5'-[(4-amino-2-butenyl)methylamino]adenosine]
[1]; Compound A 1 µM, after 72 hours
  Cell Count Number Recovered: 4.0x10^6
[1]; Compound A 10 µM, after 72 hours
  Cell Count Number Recovered: 2.0x10^6
[1]; Compound A 100 µM, after 72 hours
  Cell Count Number Recovered: 1.0x10^6
[1]; T-lymphocyte, 24 h, time course: incubation time 1 day, Compound A 100 µM, read-out: Cell Count (% Reduction over Control) (converted)
  inhibition at 100 µM: 40%
[1]; T-lymphocyte, 48 h, time course: incubation time 2 days, Compound A 100 µM, read-out: Cell Count (% Reduction over Control) (converted)
  inhibition at 100 µM: 78%
[1]; T-lymphocyte, 72 h, time course: incubation time 3 days, Compound A 100 µM, read-out: Cell Count (% Reduction over Control) (converted)
  inhibition at 100 µM: 85%
[1]; T-lymphocyte, 96 h, time course: incubation time 4 days, Compound A 100 µM, read-out: Cell Count (% Reduction over Control) (converted)
  inhibition at 100 µM: 64%
[1]; T-lymphocyte, Compound A 1 µM, after 72 hours, read-out: Cell Count (% Reduction over Group 1) (converted)
  inhibition at 1 µM: 39%
[1]; T-lymphocyte, Compound A 10 µM, after 72 hours, read-out: Cell Count (% Reduction over Group 1) (converted)
  inhibition at 10 µM: 70%
[1]; T-lymphocyte, Compound A 100 µM, after 72 hours, read-out: Cell Count (% Reduction over Group 1) (converted)
  inhibition at 100 µM: 85%
[1]; time course: incubation time 1 day, Compound A 100 µM
  Cell Count Number Recovered: 0.3x10^6
[1]; time course: incubation time 2 days, Compound A 100 µM
  Cell Count Number Recovered: 0.7x10^6
[1]; time course: incubation time 3 days, Compound A 100 µM
  Cell Count Number Recovered: 1.0x10^6
[1]; time course: incubation time 4 days, Compound A 100 µM
  Cell Count Number Recovered: 1.7x10^6
[2]; Compound A 1 µM, 72 hours culture, restimulated with IL-2 10 units/mL for 24 hours
  DNA Synthesis CPM: 19218 CPM
[2]; Compound A 10 µM, 72 hours culture, restimulated with IL-2 10 units/mL for 24 hours
  DNA Synthesis CPM: 10005 CPM
[2]; Compound A 100 µM, 72 hours culture, restimulated with IL-2 10 units/mL for 24 hours
  DNA Synthesis CPM: 8114 CPM
[2]; T-lymphocyte, 48 h, time course: incubation time 2 days, Compound A 100 µM, then IL-2 restimulation 24 hours, read-out: DNA Synthesis (% Reduction over Control)
  inhibition at 100 µM: 45%
[2]; T-lymphocyte, 72 h, time course: incubation time 3 days, Compound A 100 µM, then IL-2 restimulation 24 hours, read-out: DNA Synthesis (% Reduction over Control)
  inhibition at 100 µM: 76%
[2]; T-lymphocyte, 96 h, time course: incubation time 4 days, Compound A 100 µM, then IL-2 restimulation 24 hours, read-out: DNA Synthesis (% Reduction over Control)
  inhibition at 100 µM: 73%
[2]; T-lymphocyte, Compound A 1 µM, 72 hours culture, restimulated with IL-2 10 units/mL for 24 hours, read-out: DNA Synthesis (% Reduction over Group 1)
  inhibition at 1 µM: 43%
[2]; T-lymphocyte, Compound A 10 µM, 72 hours culture, restimulated with IL-2 10 units/mL for 24 hours, read-out: DNA Synthesis (% Reduction over Group 1)
  inhibition at 10 µM: 70%
[2]; T-lymphocyte, Compound A 100 µM, 72 hours culture, restimulated with IL-2 10 units/mL for 24 hours, read-out: DNA Synthesis (% Reduction over Group 1)
  inhibition at 100 µM: 76%
[2]; T-lymphocyte, time course: incubation time 1 day, Compound A 100 µM, then IL-2 restimulation 24 hours, read-out: DNA Synthesis (% Reduction over Control)
  inhibition at 100 µM: 59%
[2]; time course: incubation time 1 day, Compound A 100 µM, then IL-2 restimulation 24 hours
  DNA Synthesis CPM: 7622 CPM
[2]; time course: incubation time 2 days, Compound A 100 µM, then IL-2 restimulation 24 hours
  DNA Synthesis CPM: 6197 CPM
[2]; time course: incubation time 3 days, Compound A 100 µM, then IL-2 restimulation 24 hours
  DNA Synthesis CPM: 8114 CPM
[2]; time course: incubation time 4 days, Compound A 100 µM, then IL-2 restimulation 24 hours
  DNA Synthesis CPM: 8863 CPM
